{"source": "paper PMC13492380", "about": "“Dissecting Structural and Functional Determinants of Microtubules Stabilization through Guided Chemical Modulation” (Journal of Medicinal Chemistry, 2026)", "system": "Tau441 interaction with MTs in axon-like processes of neuronally differentiated PC12 cells", "assay": "Fluorescence decay after photoactivation (FDAP) of PAGFP-Tau441", "assay_type": "cell-based, human", "description": "Building on the role of Tau dynamics in axonal MT function, , we next used Tau as a structural sensitive neuronal MAP to assess whether drug-imposed MT lattice states alter MAP recognition. To this end, we initially performed fluorescence decay after photoactivation (FDAP) experiments to assess potential changes in the interaction of the longest human Central Nervous System Tau isoform (Tau441) with MTs in axon-like processes of model neurons. We tagged Tau at the N-terminus with photoactivatable GFP (PAGFP) and expressed it exogenously in PC12 cells differentiated into a neuronal phenotype (Figure A). After locally activating a subset of labeled Tau molecules in the middle of a process, we monitored FDAP over time in the activated region (Figure B). Tau gradually dissipated from the activation site.\nTo quantify changes in Tau’s effective diffusion constant (D eff) as a result of its dynamic interactions with MTs, we measured FDAP at various compound concentrations and fitted the resulting decay curves using a previously established reaction-diffusion model. […] Remarkably, the GDP-like MTs stabilized by compound 1b remain largely neutral with respect to Tau-MT interactions.\nPC12 cells (originally obtained from J.A. Wagner, Harvard Medical School) were cultured in serum-DMEM (DMEM supplemented with 10% fetal bovine serum and antibiotics (100 U/ml penicillin and 100 μg/mL streptomycin)) at 37 °C with 10% CO2 in a humidified incubator. For live cell imaging, cells were transfected with the respective pRc/CMV expression vector using Lipofectamine 2000 (Thermo-Fisher Scientific, USA) as previously described. FDAP experiments were performed essentially as previously described. Briefly, cells expressing PAGFP-tagged Tau441 were plated on 35 mm glass-bottom culture dishes (MatTek, USA), transfected, and neuronally differentiated by medium exchange to serum-reduced DMEM containing 100 ng/mL 7S mouse NGF. After 3 days, the medium was exchanged to serum-reduced DMEM without phenol red with NGF, and the respective compound (or DMSO for carrier control) were added at the desired concentration. After 20 h, live cell imaging was performed using a laser scanning microscope (Nikon Eclipse Ti2-) equipped with a LU-N4 laser unit with 488 and 405 nm lasers and a Fluor 60× ultraviolet-corrected objective lens (NA 1.4) and a C2+scanner enclosed in an incubation chamber at 37 °C and 5% CO2. Photoactivation was performed with a 405 nm laser using the microscope software (NIS-Elements version AR 5.02.03). The following steps were performed in a photoactivation experiment. A transfected cell with a suitable process (minimum length 30 μm) was selected in the field of view (50 μm × 50 μm) and a preactivation image was saved at 488 nm excitation. The scan window was reduced to a 6-μm diameter activation spot (corresponding to 130 pixels), and photoactivation was performed in the center of the neurite using the 405 nm blue diode (laser intensity 1.0%; corresponding to an output of 30 μW) with two scans at a pixel dwell time of 4.08 μs (corresponding to a total activation time at the spot of 1.1 ms). The scan window was enlarged to the initial size, and the first scan was performed after 1 s with the 488 nm laser at the lowest practical laser intensity. Subsequent images were acquired at a rate of 1 frame/s. 112 images with a resolution of 256 × 256 pixels were collected per activated neurite. […] Effective diffusion constants were determined by fitting the fluorescence decay data from the photoactivation experiments using a one-dimensional diffusion model function for FDAP according to. All data sets were tested for normality using the D’Agostino-Pearson and Shapiro-Wilk tests. Statistical outliers were identified using the ROUT method. Equality was assessed using a F-test to compare variances. To compare different concentrations, statistically significant differences from control were determined by a one-way ANOVA with Dunnett’s post hoc test. […]", "data": [{"smiles": "CC(=O)OC1C(=O)C2(C)C(OC(=O)CCCCC(=O)OC3CCc4ccccc43)CC3OCC3(OC(C)=O)C2C(OC(=O)c2ccccc2)C2(O)CC(OC(=O)C(O)C(NC(=O)c3ccccc3)c3ccccc3)C(C)=C1C2(C)C", "note": "(stereo not drawn) [1a, 7-O-(6″-O-(2‴,3‴-Dihydroinden-1‴-yl)hexanedioyl) Paclitaxel]", "values": [{"measurement": "effect on Tau's effective diffusion constant (D eff) / Tau-MT interaction", "setting": "PC12 cells, 20 h treatment", "result": "increasing Tau’s D eff"}]}, {"smiles": "COc1ccc2c(c1)CC(NC(=O)CCCCCCCC(=O)OC1CC3OCC3(OC(C)=O)C3C(OC(=O)c4ccccc4)C4(O)CC(OC(=O)C(O)C(NC(=O)c5ccccc5)c5ccccc5)C(C)=C(C(OC(C)=O)C(=O)C13C)C4(C)C)CC2", "note": "[1b, 7-O-((S)-9″-(7‴-Methoxy-1‴,2‴,3‴,4‴-tetrahydronaphthalen-2‴-yl)amino) −9″-oxononanoyl) Paclitaxel]", "values": [{"measurement": "effect on Tau's effective diffusion constant (D eff) / Tau-MT interaction", "setting": "PC12 cells, 20 h treatment", "result": "did not significantly alter Tau-MT interactions"}]}, {"smiles": "CC(=O)O[C@H]1C(=O)[C@@]2(C)[C@H]([C@H](OC(=O)c3ccccc3)[C@]3(O)C[C@H](OC(=O)[C@H](O)[C@@H](NC(=O)c4ccccc4)c4ccccc4)C(C)=C1C3(C)C)[C@]1(OC(C)=O)CO[C@@H]1C[C@@H]2O", "note": "[PTX, Paclitaxel]", "values": [{"measurement": "unbound Tau population", "setting": "20 nM PTX (control 7.5%)", "result": 4.4, "unit": "%"}, {"measurement": "decrease in the unbound Tau population", "setting": "20 nM PTX vs control", "result": "~40", "unit": "%"}, {"measurement": "concentration with notable reduction of Tau's D eff", "setting": "PC12 cells, 20 h treatment", "result": 5, "unit": "nM"}, {"measurement": "effect on Tau's effective diffusion constant (D eff) / Tau-MT interaction", "setting": "PC12 cells, 20 h treatment", "result": "significantly reduced Tau’s D eff"}]}]}
